Results published in the supplement of paper PMC11451515.

Test system: SEM cells
Assay: cell viability relative to DMSO control; higher = less cytotoxic
Conditions: 48 h
Method in brief: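 Viability is a per-plate percentage relative to DMSO wells, with cell-free wells as background. CellTiter-Glo One luminescence was read after 48 h at 37°C on 1536-well plates (5 μl) of NOMO1 or SEM (500 cells/well) or P12-Ichikawa (1000 cells/well) leukemia cells. The cells had been adapted for at least four passages in each medium and pin-dosed with library compounds in DMSO from 47 μM to 0.79 nM in 11 threefold steps.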

[1] = HPLM + 10% dialyzed FBS, 0.000781 µM
[2] = HPLM + 10% dialyzed FBS, 0.00234 µM
[3] = HPLM + 10% dialyzed FBS, 0.00702 µM
[4] = HPLM + 10% dialyzed FBS, 0.0211 µM
[5] = HPLM + 10% dialyzed FBS, 0.0632 µM
[6] = HPLM + 10% dialyzed FBS, 0.19 µM
[7] = HPLM + 10% dialyzed FBS, 0.569 µM
[8] = HPLM + 10% dialyzed FBS, 1.71 µM
[9] = HPLM + 10% dialyzed FBS, 5.12 µM
[10] = HPLM + 10% dialyzed FBS, 15.4 µM
[11] = HPLM + 10% dialyzed FBS, 46.1 µM
[12] = RPMI 5 mM glucose + 10% FBS, 0.000781 µM
[13] = RPMI 5 mM glucose + 10% FBS, 0.00234 µM
[14] = RPMI 5 mM glucose + 10% FBS, 0.00702 µM
[15] = RPMI 5 mM glucose + 10% FBS, 0.0211 µM
[16] = RPMI 5 mM glucose + 10% FBS, 0.0632 µM
[17] = RPMI 5 mM glucose + 10% FBS, 0.19 µM
[18] = RPMI 5 mM glucose + 10% FBS, 0.569 µM
[19] = RPMI 5 mM glucose + 10% FBS, 1.71 µM
[20] = RPMI 5 mM glucose + 10% FBS, 5.12 µM
[21] = RPMI 5 mM glucose + 10% FBS, 15.4 µM
[22] = RPMI 5 mM glucose + 10% FBS, 46.1 µM
[23] = RPMI 5 mM glucose + 10% dialyzed FBS, 0.000781 µM
[24] = RPMI 5 mM glucose + 10% dialyzed FBS, 0.00234 µM
[25] = RPMI 5 mM glucose + 10% dialyzed FBS, 0.00702 µM
[26] = RPMI 5 mM glucose + 10% dialyzed FBS, 0.0211 µM
[27] = RPMI 5 mM glucose + 10% dialyzed FBS, 0.0632 µM
[28] = RPMI 5 mM glucose + 10% dialyzed FBS, 0.19 µM
[29] = RPMI 5 mM glucose + 10% dialyzed FBS, 0.569 µM
[30] = RPMI 5 mM glucose + 10% dialyzed FBS, 1.71 µM
[31] = RPMI 5 mM glucose + 10% dialyzed FBS, 5.12 µM
[32] = RPMI 5 mM glucose + 10% dialyzed FBS, 15.4 µM
[33] = RPMI 5 mM glucose + 10% dialyzed FBS, 46.1 µM

Row | SMILES | cell viability [1] [%] | cell viability [2] [%] | cell viability [3] [%] | cell viability [4] [%] | cell viability [5] [%] | cell viability [6] [%] | cell viability [7] [%] | cell viability [8] [%] | cell viability [9] [%] | cell viability [10] [%] | cell viability [11] [%] | cell viability [12] [%] | cell viability [13] [%] | cell viability [14] [%] | cell viability [15] [%] | cell viability [16] [%] | cell viability [17] [%] | cell viability [18] [%] | cell viability [19] [%] | cell viability [20] [%] | cell viability [21] [%] | cell viability [22] [%] | cell viability [23] [%] | cell viability [24] [%] | cell viability [25] [%] | cell viability [26] [%] | cell viability [27] [%] | cell viability [28] [%] | cell viability [29] [%] | cell viability [30] [%] | cell viability [31] [%] | cell viability [32] [%] | cell viability [33] [%]
1 | O=C(Oc1ccc([N+](=O)[O-])cc1)N1CCN(Cc2cccc(Oc3ccccc3)c2)CC1 | 94.6 | 100 | 93.4 | 106 | 103 | 64.4 | 120 | 116 | 107 | 107 | 121 | 90.4 | 86.1 | 99.5 | 106 | 93.6 | 67.1 | 111 | 106 | 102 | 95.9 | 101 | 112 | 108 | 108 | 125 | 115 | 60.9 | 109 | 108 | 114 | 110 | 121
2 | COc1ccc2cc(-c3[nH]c(-c4ccc([S+](C)[O-])cc4)nc3-c3ccncc3)ccc2c1 (configuration not stated) | 92.4 | 104 | 105 | 109 | 109 | 114 | 121 | 107 | 126 | 127 | 107 | 76.8 | 105 | 96.3 | 85.9 | 95 | 101 | 101 | 106 | 110 | 111 | 71.9 | 88.6 | 109 | 102 | 105 | 101 | 116 | 127 | 109 | 111 | 116 | 88.9
3 | O=C(c1ccc(F)cc1)C1CCN(CCn2c(=O)[nH]c3ccccc3c2=O)CC1 | 97.6 | 103 | 112 | 101 | 101 | 98.5 | 119 | 109 | 104 | 95.7 | 93 | 118 | 121 | 126 | 126 | 106 | 120 | 120 | 119 | 119 | 125 | 116 |  |  |  |  |  |  |  |  |  |  | 
4 | COc1ccc(-c2c(-c3ccc(O)cc3O)n[nH]c2C)cc1 | 98.3 | 95.8 | 114 | 108 | 110 | 108 | 88.8 | 95.5 | 86 | 62.2 | 51.1 | 114 | 104 | 107 | 109 | 108 | 108 | 103 | 84.3 | 84.1 | 44 | 20.9 | 98.6 | 96.8 | 93 | 101 | 103 | 108 | 96.2 | 99.5 | 87 | 54.4 | 30.9
5 | CN1[C@@H]2CC(O)C[C@H]1[C@@H]1O[C@@H]12 (some centres not stated) |  |  |  |  |  |  |  |  |  |  |  | 124 | 123 | 114 | 19.5 | 134 | 115 | 109 | 130 | 115 | 109 | 7.57 | 101 | 126 | 116 | 21.8 | 103 | 111 | 103 | 106 | 94.3 | 81.4 | 5.54
6 | c1ccc2c(-c3cnn4cc(-c5ccc(N6CCNCC6)cc5)cnc34)ccnc2c1 | 75.6 | 78.2 | 121 | 125 | 139 | 130 | 122 | 100 | 2.9 | 1.26 | 2.65 | 84 | 71.6 | 140 | 138 | 153 | 122 | 121 | 97.1 | 61 | 7.66 | 3.32 | 69 | 72.2 | 118 | 147 | 151 | 142 | 114 | 89.2 | 66.7 | 45.9 | 3.66
7 | C[C@H]1CCC/C=C/C2C[C@H](O)C[C@H]2[C@H](O)/C=C/C(=O)O1 (some centres not stated) | 15.7 | 31.7 | 17.9 | 5.79 | 5.21 | 5.3 | 5 | 4.73 | 2.72 | 2.09 | 2.38 | 11.4 | 54.4 | 44.6 | 9.33 | 5.67 | 6.09 | 5.62 | 4.83 | 3.32 | 3.06 | 2.16 | 4.97 | 29.4 | 23.6 | 5.2 | 4.1 | 3.92 | 3.96 | 3.5 | 2 | 1.85 | 1.45
8 | CNC(=O)c1c(F)cccc1Nc1nc(Nc2cc3c(cc2OC)CCN3C(=O)CN(C)C)nc2[nH]ccc12 | 84.8 | 92.2 | 94.8 | 100 | 83.5 | 58.3 | 40.5 | 31.9 | 22 | 3.15 | 1.16 | 90.3 | 90.5 | 83.2 | 97.9 | 88.7 | 51 | 34.8 | 27.3 | 13.5 | 1.01 | 0.384 | 93.6 | 96.8 | 93.6 | 105 | 94.7 | 58.4 | 32.8 | 30.2 | 13.4 | 2.8 | 0.739
9 | Cn1c(=O)c2c(ncn2CC(O)CO)n(C)c1=O (configuration not stated) | 87.4 | 101 | 116 | 92.6 | 104 | 109 | 113 | 111 | 96 | 108 | 124 | 106 | 96.7 | 120 | 101 | 120 | 123 | 113 | 111 | 111 | 111 | 122 | 93.1 | 120 | 99.3 | 110 | 116 | 113 | 121 | 133 | 135 | 125 | 137
10 | CC(C)(C)C1=NC2=C([NH]1)C3=CC=C(F)C=C3C4=C2\C=C/NC4=O | 118 | 114 | 130 | 130 | 125 | 116 | 111 | 89 | 38.8 | 32.1 | 50.1 | 96.8 | 116 | 141 | 115 | 126 | 138 | 114 | 98.6 | 37.2 | 18.1 | 32.3 |  |  |  |  |  |  |  |  |  |  | 
11 | COC1=CC=C2C(=CC=NC2=C1)OC3=CC=C(NC(=O)\C4=C(C)\N(CC(C)(C)O)N(C4=O)C5=CC=CC=C5)C=C3F | 108 | 99.9 | 129 | 108 | 114 | 112 | 112 | 98.1 | 60.7 | 45.7 | 39.1 | 113 | 108 | 122 | 115 | 117 | 118 | 104 | 86.1 | 51.1 | 30.7 | 21.6 | 105 | 110 | 124 | 108 | 136 | 130 | 93.8 | 69.7 | 44.4 | 35.8 | 24.2
12 | CC(=O)SCC(Cc1ccccc1)C(=O)NCC(=O)OCc1ccccc1 (configuration not stated) | 86.1 | 79.1 | 93.3 | 96.4 | 99 | 103 | 105 | 97.4 | 108 | 108 | 102 | 84.9 | 77.2 | 97.1 | 94 | 96 | 92.5 | 98.3 | 99.8 | 95.7 | 91.2 | 90.1 | 77.4 | 77.6 | 82.1 | 104 | 109 | 104 | 115 | 114 | 108 | 116 | 96.9
13 | CN(C)c1ccc(C(=O)NCCCCCCC(=O)NO)cc1 | 97.1 | 94.4 | 91.8 | 88.1 | 97.7 | 96.2 | 93.9 | 34 | 3.1 | 1.85 | 2.9 | 91.8 | 100 | 94.6 | 92 | 112 | 94.8 | 76.2 | 37.3 | 3.1 | 1.95 | 3.03 | 93.2 | 111 | 105 | 96.4 | 95 | 90.7 | 83.5 | 31.4 | 2.63 | 1.52 | 3.31
14 | CCN(CC)CCOC1=CC=C(NC2=NC=C3\C=C(/C(=O)N(C)C3=N2)C4=C(Cl)C=CC=C4Cl)C=C1 | 94.9 | 101 | 105 | 74.5 | 67.9 | 58.4 | 56.8 | 56 | 10.9 | 6.61 | 4.15 | 78.3 | 67.6 | 74.7 | 52.1 | 48.6 | 44.8 | 38.2 | 45.8 | 11.7 | 7.2 | 2.88 | 92.5 | 102 | 106 | 68.3 | 76.1 | 69.1 | 61.1 | 59.8 | 13.5 | 8.59 | 3.75
15 | CC(C)[C@H](CO)Nc1nc(Nc2ccc(C(=O)O)c(Cl)c2)c2ncn(C(C)C)c2n1 | 113 | 104 | 103 | 112 | 126 | 115 | 97.6 | 73.6 | 99.2 | 92.2 | 54.2 | 89.7 | 128 | 114 | 95.2 | 106 | 102 | 86.6 | 83.2 | 75.5 | 91.7 | 45 | 102 | 120 | 97.3 | 107 | 116 | 107 | 114 | 79.1 | 109 | 95.5 | 57.8
